Test results as given in US20250152577A1, “Pharmaceutical Composition of Ethidium Bromide and Use in Treating Cancer” (RUIJIN HOSPITAL, SHANGHAI JIAOTONG UNIVERSITY SCHOOL OF …, priority 2022, published 2025).

Test system: AOM+DSS-induced colorectal tumor
Test: AOM+DSS-induced spontaneous colorectal cancer mouse model
Type: in vivo, mice
Conditions: zalcitabine 33 mg/Kg alone, one month
Description: The classical intraperitoneal injection of AOM and the spontaneous colorectal cancer formation by three rounds of DSS were utilized to construct a tumor mouse model. Mice were treated with ethidium bromide (500 mg/L dissolved in drinking water) one week after completion of the construction. […] Mice were sacrificed and their colorectum was taken for photographic observation and fixed staining.
To further verify the above results, we then expanded the sample size to about 10-16 mice per group and still used the above AOM+DSS protocol to induce spontaneous colorectal cancer formation in mice. […] Meanwhile, since it has been reported that zalcitabine (ddC) can effectively impair the function of mitochondria (mainly the replication of mtDNA, similar to ethidium bromide), we added the experimental group of zalcitabine (33 mg/Kg) as a control.
In addition, in order to investigate in what way ethidium bromide clears tumors in mice, we also tested cell proliferation (FIGS. 8A and B) and apoptosis (FIG. 8C-F) in tumor tissues and normal tissues surrounding the tumors in different treatment groups. Among them, cell proliferation was detected by immunohistochemistry of Ki67-positive cells, and apoptosis was detected by immunofluorescence staining of cleaved Caspase3.
To further verify whether ethidium bromide is still effective against already existing larger tumors (advanced colorectal cancer), we set aside a group of control mice (started administration 5 weeks after the end of induction, equivalent to the control group of mice described above) to administer them by gavage (20 mg/Kg per day).
We investigated the mechanism of ethidium bromide-induced apoptosis in tumor cells. First, tumor tissues treated with ethidium bromide (mice shown in FIGS. 7 and 8, treated for 4 weeks at 20 mg/Kg per day) were subjected to SDS-Loading buffer boiling lysis and tested for associated signaling pathways by Western blotting.

In the case of `Nc1ccn([C@H]2CC[C@@H](CO)O2)c(=O)n1` [zalcitabine, reference compound], the “effect on spontaneous colorectal tumors” value is reported as “had no effect”.
